We go through two compounds from article PMC10982999, “Structure-Guided Design and Optimization of Covalent VHL-Targeted Sulfonyl Fluoride PROTACs” (Journal of Medicinal Chemistry, 2024).

As a reminder, the half-life is the time needed for the level to fall by half in the phase considered. Lower therefore signals rapid decline.

The nature of data set [1]: physchem. To be noted: buffer. As for the experimental part: Table S1. Sulfonyl fluoride warhead stability for VHL-SF1 and VHL-SF2 was determined in
(1 picture or pasted object on this page, not shown here)

In data set [2] the target is T1, VCB and FAM-conjugated HIF1α-derived peptide interaction (Homo sapiens, UniProt P40337).
T1 construct: human VHL (UniPort entry P40337, residues 1 -213); 6xHis followed by TEV site (N, cleaved yes); made in house; host or cells: E. coli One Shot BL21(DE3)
Put plainly: Competitive fluorescence polarization (FP) assay, VCB / FAM-conjugated HIF1α-derived peptide. Type of data set: binding. To be noted: concentrations up to 100 μM, 2 h pre-incubation with VCB. The protocol:
We next focused on developing a second generation covalent VHL binder with enhanced potency and occupancy.
Figure 2 (A) Structure of VHL-SF2. […] (E) Competition pull-down assay from live cells between VHL-SF2-Biotin and VHL-SF2. HEK293T cells were pretreated with DMSO or varying concentrations of VHL-SF2 for 2 h at 37 °C. The cells were lysed and treated with DMSO or VHL-SF2-Biotin (50 μM) for 2 h at room temperature. A pull-down with streptavidin beads was conducted, after which the protein was resolved on SDS/PAGE. VHL and loading control GAPDH levels were visualized by Western blotting.
Figure S3. (A) Gel-based VHL labelling of VHL-SF1-Biotin, and (B) VHL-SF2-Biotin. VCB protein was pre-treated with DMSO, VHL-SF1-Biotin or VHL-SF2-Biotin for 2 h at room temperature, after which protein was resolved on SDS -PAGE and visualised by Neutravidin […]
Figure S4. Dose-response of VHL-SF1 following a 2 h pre-incubation in the presence of VCB and FAM-conjugated HIF1α-derived peptide, assessed by fluorescence polarization. Data […]
Figure S5. (A) VCB was incubated with DMSO for 24 h and subjected to intact-protein LC-MS (VHL: 24784 Da). […]
Fluorescence polarization assay protocol […]
well plate and the plate was shaken for 1 min, before reading fluorescence polarization on a Perkin Elmer Envision 2101 plate reader (excitation 486 nm, emission 535 nm). […]

For data set [3], the target named is T2, recombinant human VCB (VHL protein with elongin C and elongin B) (Homo sapiens, UniProt P40337).
T2 construct: human VHL (UniPort entry P40337, residues 1 -213); 6xHis followed by TEV site (N, cleaved yes); made in house; host or cells: E. coli One Shot BL21(DE3)
In words: Gel-based streptavidin shift assay (anti-VHL Western blot). To be noted: 10 μM probe, 2 h incubation at room temperature. In kind it is binding. The protocol: To assess the ability of VHL-SF1 to covalently modify VHL, we initially developed a streptavidin shift assay in which we exposed recombinant human VCB, a stable complex of VHL protein with elongin C and elongin B, to VHL-SF1-Biotin. VHL biotinylation could then be directly quantified by the apparent shift in molecular weight observed when the sample was mixed with streptavidin and analyzed by an anti-VHL Western blot (Figure S2).[20] Through this assay, we concluded that 10 μM VHL-SF1-Biotin modified 32% VHL following 2 h of incubation at room temperature, which was further confirmed to be concentration-dependent with respect to the probe (Figure S3).
Figure S2. (A) Structure of VHL-SF-1-Biotin. (B) Structure of VHL-SF-2-Biotin. (C - E) Gel-based streptavidin shift assay of VHL-SF1-Biotin, and VHL-SF2-Biotin. VCB protein was pre-treated with DMSO, VHL-SF1-Biotin (10 μM) or VHL-SF2-Biotin (10 μM) for 2 h at room temperature prior to addition of streptavidin (10 μM, 10 min) at room temperature, after which protein was resolved on SDS-PAGE and visualised by VHL western blotting. (F) Quantification of VHL levels from western blot.
Docking analysis with Molecular Operating Environment (MOE)
Molecular modelling studies were conducted using the software Molecular Operating Environment 2019.01. […]

Turning to `CC(=O)N[C@H](C(=O)N1C[C@H](S(=O)(=O)F)C[C@H]1C(=O)NCc1ccc(-c2scnc2C)cc1)C(C)(C)C` [VHL-SF1, (3R,5S)-1-((S)-2-Acetamido-3,3-dimethylbutanoyl)-5-((4-(4-methylthiazol-5-yl)benzyl)carbamoyl)-pyrrolidine-3-sulfonyl fluoride], the half-life was 15 h in data set [1] (pH 6) and 0.55 h in data set [1] (pH 7.5). The “displacement of fluorophore-labeled HIF1α peptide” value in data set [2] is “unable to displace”.

`Cc1cc([C@H](C(=O)N2C[C@H](S(=O)(=O)F)C[C@H]2C(=O)N[C@@H](CC(=O)NCCOCCOCCOCCNC(=O)CCCC[C@H]2SC[C@@H]3NC(=O)N[C@@H]32)c2ccc(-c3scnc3C)cc2)C(C)C)on1` [VHL-SF2-Biotin, (3R,5S)-1-((R)-3-Methyl-2-(3-methylisoxazol-5-yl)butanoyl)-5-(((S)-1-(4-(4-methylthiazol-5-yl)phenyl)-3,17-dioxo-21-((3aS,4R,6aR)-2-oxohexahydro-1H-thieno[3,4-d]imidazole-4-yl)-7,10,13-trioxa-4,16-diazahenicosyl)carbamoyl)pyrrolidine-3-sulfonyl fluoride]: in data set [3], the “VHL modified (VHL biotinylation, streptavidin shift)” value turned out to be 44%.
